In US20100317671A1, “XANTHINE-BASED CYCLIC GMP-ENHANCING RHO-KINASE INHIBITOR INHIBITS PHYSIOLOGICAL ACTIVITIES OF LUNG EPITHELIAL CELL LINE” (KAOHSIUNG MEDICAL UNIVERSITY, priority 2008, published 2010):

How the values were obtained:
HMGB1 = HMGB1 expression, bleomycin mice; format: in vivo; conditions: lung inflammatory stage
Method: (§1) At day 28, it is observed that expression of eNOS is decreased, the expressions of TGF-β, Smad 3 and HMGB1 are increased and there is significant collagen accumulation in the tissue sections.
(§2) (1) The mice lung is immersed in the tissue lysis buffer and homogenized by an ultrasound sonicator on ice.
(§3) (2) The lysate is centrifuged at 13,000 g under 4° C. for 30 mins. The supernatant is collected and the protein concentration measurement adopts the“Bio-Rad DC protein assay”. After diluting the protein as specific concentrations, the sample buffer being one fourth of the sample volume is added thereinto for heating at 100° C. for 5 mins, and the sample is loaded into each wells of SDS-PAGE gel in turn. The running buffer is added into the electrophoresis tank for electrophoresis at 100 V, the voltage is adjusted as 200 V when the protein runs to the lower gel, and the electrophoresis is stopped when the SDS-PAGE dye enters the SDS-PAGE.
(3) The PVDF membrane is rinsed ith transfer buffer for use, and the protein on the SDS-PAGE is transferred to the PVDF membrane. The SDS-PAGE layer covering on the PVDF membrane is placed in a protein transfer tank immersed with the transfer buffer with the current set at 100V. After 80 mins, the transfer is completed and then the PVDF membrane is taken out. […]

NOx = NOx levels in BALF of OVA-sensitized and -challenged mice (Griess reagent); format: in vivo; conditions: 24 hrs after last OVA challenge; basal 65.4, OVA 162.8 μM
eNOS [1] = experiment: Immunostaining of lung sections, OVA mice; format: in vivo
Source text: OVA decreases vascular eNOS-immunostaining in lung sections, but KMUP-1 prevents this decrease quantitatively.

MMP-9 [2] = experiment: Immunostaining of lung sections, OVA mice; format: in vivo; conditions: OVA-sensitized and -challenged mice
sGCα1 = experiment: Western blotting of lung tissue, OVA-sensitized and -challenged mice; format: in vivo; conditions: nebulization, 28-day experiment
[3] = tested on: total cells, lymphocytes and eosinophils in BALF; experiment: Cellular components in BALF, OVA-challenged mice; format: in vivo; conditions: 24 hrs after last OVA challenge; nebulization
Source text: Inflammation and remodeling of the bronchioles is associated with infiltration of blood-born lymphocytes, eosinophils and neutrophils, migrating into bronchial lumen. During the course of allergic disease, structural changes occur in the airways, referred to as remodeling. However, treatment with KMUP-1 prevents the migration of blood born cells into bronchiole.

TGF-β = TGF-β expression by western blotting, bleomycin mice; format: in vivo; conditions: lung fibrotic stage
Method: as §1
The TGF-β (FIG. 12), CTGF (FIG. 13) and Smad3/p-Smad3 (FIG. 14) protein expressions in the lung tissue are analyzed by western blotting.
as §2, §3
(3) The PVDF membrane is rinsed ith transfer buffer for use, and the protein on the SDS-PAGE is transferred to the PVDF membrane. The SDS-PAGE layer covering on the PVDF membrane is placed in a protein transfer tank immersed with the transfer buffer with the current set at 100V. […]

iNOS = experiment: Western blotting of lung tissue, OVA-sensitized and -challenged mice; format: in vivo; conditions: nebulization, 28-day experiment
collagen = experiment: Collagen amount, bleomycin-induced IPF mice; format: in vivo; conditions: for Fibrosis formation in lung tissue (collagen): day 28, p<0.01; for The amount of collagen: day 28 after BLM
Method: The amount of the collagen in the lung lavage is measured to reflect the fibrosis formation. […] (2) After the lung lavage is obtained, the chest of mice is opened and the lung lobes are cut one by one. […] The 1.5 ml eppendorffs are taken to arrange the calibration curve as follows. […] The eppendorff is then centrifuged at 12,000 rpm for 10 mins. The supernatant in the eppendorff is poured out slowly, 1 ml basic compound is added for dissolving the precipitation. After being violently shaken for 5 mins, the reaction is incubated for 3 hrs to stabilize the color. […] The amount of collagen is estimated through the 540 nm absorption measured by the ELISA reader.

[4] = Body weight change, bleomycin-induced IPF mice; format: in vivo
Method: The six-week old mice are used in this experiment and divided into ten groups as follows. […] The six-week old male C57B1/6 mice are purchased from the National Laboratory Animal Center. […] After being […] pentobarbital in the dose of 0.52 mg/10 g, the mice is kept upright and positioned an otoscope into the larynx for looking into the trachea clearly. The bleomycin is loaded by a loading tip for intratracheal administration.

MMP-9 [5] = experiment: OVA-induced MMP-9 expression in lung tissue, asthma mice; format: in vivo, BALB/c mice; conditions: nebulization, 28-day experiment; western blotting and zymography
Method: The male BALB/c mice (20-23 g) are injected (i.p.) with OVA (5 mM, 30 mins), sensitized with OVA on day 1 and day 8 via i.p injection and activated by 2 mg aluminum hydroxide to which 2 μg OVA is absorbed. […] The asthmatic animals are divided into 5 groups, wherein the control group is only administered with saline spray and the remaining experimental groups are firstly administered with 1% OVA spray and then administered with the sprays of the related complex salts respectively as shown in Table 4. The inhibition of the expression of OVA-induced MMP-9 in lung tissue of BALB/c mice is measured.

PKG = experiment: Western blotting of lung tissue, OVA-sensitized and -challenged mice; format: in vivo; conditions: nebulization, 28-day experiment
MMP-9 [6] = experiment: Short-term nebulization without OVA sensitization, lung tissue; format: in vivo, mice; conditions: 1.0~2.5 mM, 30 mins nebulization, no OVA
Method: (§4) Short-term KMUP-1 (5 mM, 30 min) nebulization and pretreatment with L-NAME (12 mM, […]) are accomplished using a previously described method. Aerosols were generated by ultrasonic nebulizer from day 21 to 27. Mice were sacrificed on day 28. Three different experiments were performed on cohorts of 7-14 mice per experimental condition.
(§5) Please refer to FIGS. 22(B) and 23(B), the changes of eNOS and MMP-9 expression by KMUP-1 (2.5 mM, 30 mins) are reversed by L-NAME-pretreatment (12 mM, 30 mins).

eNOS [7] = experiment: as above; format: in vivo, mice; conditions: 1.0~2.5 mM, 30 mins nebulization, no OVA
Method: as §4, §5

eNOS [8] = experiment: eNOS expression by western blotting, bleomycin mice; format: in vivo; conditions: lung fibrotic stage
Method: as §1
The eNOS (FIG. 15), p-eNOS (FIG. 16) and iNOS (FIG. 17) protein expressions in the lung tissue are analyzed by western blotting. […] The KMUPs administration effectively increases the eNOS expression.
as §2, §3
(3) The PVDF membrane is rinsed ith transfer buffer for use, and the protein on the SDS-PAGE is transferred to the PVDF membrane. […]

[9] = dose 2.5 mg/kg (Combination: 2.5 mg/kg each drug)
[10] = Day 7, dose 2.5 mg/kg (Combination: 2.5 mg/kg each drug)
[11] = Day 14, dose 2.5 mg/kg (Combination: 2.5 mg/kg each drug)
[12] = Day 28, dose 2.5 mg/kg (Combination: 2.5 mg/kg each drug)
[13] = Day −3, dose 2.5 mg/kg (Combination: 2.5 mg/kg each drug)

With Cn1c(=O)c2c(ncn2CCN2CCN(c3ccccc3Cl)CC2)n(C)c1=O [KMUP-1, 7-[2-[4-(2-chlorobenzene)piperazinyl]ethyl]-1,3-dimethylxanthine] the “Expression of HMGB1” value (HMGB1) was “efficiently decrease”, the “Levels of NOx (nitrate+nitrite) in BALF” value (NOx) was 86.3 ± 17.3 µM and the “Vascular eNOS-immunostaining decreased by OVA” value (eNOS [1]) was “prevents”. The MMP-9 positive cells (MMP-9 [2]) was “hardly detected”, the “sGCα1 expression reduced by OVA sensitization” value (sGCα1) was “prevented” and the “Increase in eosinophils in BALF” value [3] was “significantly reduces”. For the same molecule, the “Increase in lymphocytes in BALF” value [3] was “significantly reduces”, the “Increase in total cells in BALF” value [3] was “significantly reduces” and the “Expression of TGF-β” value (TGF-β) was “inhibit”. The “iNOS expression increased by OVA sensitization” value (iNOS) was “significantly reduced”, the “Fibrosis formation in lung tissue (collagen)” value (collagen) was “reduce” and the “The amount of collagen” value (collagen; dose 1 mg/kg) was 165.16 ± 0.11 μg/lung. The “The amount of collagen” value (collagen; [9]) was 132.25 ± 5.95 μg/lung, the “The amount of collagen” value (collagen; dose 5 mg/kg) was 108.32 ± 6.05 μg/lung and the Body weight ([4]; Day 7, dose 1 mg/kg) was 19.80 ± 3.13 g. It also gave a Body weight [4, 10] of 17.84 ± 1.72 g, a Body weight ([4]; Day 7, dose 5 mg/kg) of 18.33 ± 1.3 g and a Body weight ([4]; Day 14, dose 1 mg/kg) of 20.48 ± 5.68 g. The Body weight [4, 11] was 19.11 ± 3.4 g, the Body weight ([4]; Day 14, dose 5 mg/kg) was 19.83 ± 2.3 g and the Body weight ([4]; Day 28, dose 1 mg/kg) was 21.90 ± 5.27 g. It also gave a Body weight [4, 12] of 20.43 ± 2.8 g, a Body weight ([4]; Day 28, dose 5 mg/kg) of 21.13 ± 2.5 g and a Body weight ([4]; Day −3, dose 1 mg/kg) of 24.12 ± 1.96 g. For the same molecule, the Body weight [4, 13] was 23.06 ± 1.36 g, the Body weight ([4]; Day −3, dose 5 mg/kg) was 23.13 ± 1.42 g and the “MMP-9 expression increased by OVA sensitization” value (MMP-9 [5]) was “significantly reduced”. The “PKG expression reduced by OVA sensitization” value (PKG) was “prevented”, the “MMP-9 expression in lung tissues” value (MMP-9 [6]) was “decreased” and the “eNOS expression in lung tissues” value (eNOS [7]) was “dose-dependently increased”. The “Expression of eNOS” value (eNOS [8]) was “increase”.

In the case of CCC(C)(C)C(=O)O[C@H]1C[C@@H](C)C=C2C=C[C@H](C)[C@H](CC[C@@H](O)C[C@@H](O)CC(=O)O)[C@H]21.Cn1c(=O)c2c(ncn2CCN2CCN(c3ccccc3Cl)CC2)n(C)c1=O [KMUP-5], the “Expression of HMGB1” value (HMGB1) is reported as “efficiently decrease”, the “Expression of TGF-β” value (TGF-β) is reported as “inhibit” and the “Fibrosis formation in lung tissue (collagen)” value (collagen) is reported as “reduce”. For the same molecule, the “The amount of collagen” value (collagen; [9]) was 79.40 ± 0.02 μg/lung, the Body weight [4, 10] was 22.25 ± 2.36 g and the Body weight [4, 11] was 23.15 ± 2.51 g. For the same molecule, the Body weight [4, 12] was 23.03 ± 2.74 g, the Body weight [4, 13] was 23.87 ± 2.04 g and the “Marasmus (body weight loss)” value ([4]; bleomycin mice) was “less significant”. The “Expression of eNOS” value (eNOS [8]) was “increase”.
